Series [1] concerns 59 cancer cell lines. The series can be described thus: NCI 59 cancer cell line panel, single dose. The format is cell-based, human. Particulars: 10 μM single dose; for MG% (mean growth percent): 59 cell lines.
The test system of series [2] is HL-60(TB). Briefly: NCI single-dose GI%, leukemia. The format is cell-based, human. Particulars: 10.0 μM in one dose.
Series [3] relates to MOLT-4. Briefly: NCI single-dose GI%, leukemia. It counts as cell-based, human. Particulars: MOLT-4, leukemia; 10.0 μM in one dose.
The test system of series [4] is A549/ATCC. The series can be described thus: NCI single-dose GI%, NSC lung. Particulars: 10.0 μM in one dose. It counts as cell-based, human.
The subject of series [5] is EKVX. The series can be described thus: NCI single-dose GI%, NSC lung. It counts as cell-based, human. Particulars: 10.0 μM in one dose.
Series [6] concerns HOP-62. The series can be described thus: NCI single-dose GI%, NSC lung. The format is cell-based, human. Particulars: HOP-62, NSC lung; 10.0 μM in one dose.
Series [7] deals with NCI-H226. The series can be described thus: NCI single-dose GI%, NSC lung. It counts as cell-based, human. Particulars: 10.0 μM in one dose.
The subject of series [8] is NCI-H522. Briefly: NCI single-dose GI%, NSC lung. The format is cell-based, human. Particulars: 10.0 μM in one dose.
The test system of series [9] is HT29. The series can be described thus: NCI single-dose GI%, colon. Particulars: 10.0 μM in one dose. The format is cell-based, human.
The test system of series [10] is UACC-257. Briefly: NCI single-dose GI%, melanoma. The format is cell-based, human. Particulars: UACC-257, melanoma; 10.0 μM in one dose.
The subject of series [11] is CAKI-1. Briefly: NCI single-dose GI%, renal. Particulars: CAKI-1, renal; 10.0 μM in one dose. It counts as cell-based, human.
Series [12] deals with UO-31. Briefly: NCI single-dose GI%, renal. The format is cell-based, human. Particulars: UO-31, renal; 10.0 μM in one dose.
The subject of series [13] is T-47D. Briefly: NCI single-dose GI%, breast. The format is cell-based, human. Particulars: 10.0 μM in one dose.
Series [14] relates to RPMI-8226. Briefly: NCI single-dose GI%, leukemia. Particulars: RPMI-8226, leukemia; 10.0 μM in one dose. The format is cell-based, human.
For series [15], the system named is SNB-75. Briefly: NCI single-dose GI%, CNS. Particulars: SNB-75, CNS; 10.0 μM in one dose. The format is cell-based, human.
The subject of series [16] is SK-MEL-5. The series can be described thus: NCI single-dose GI%, melanoma. It counts as cell-based, human. Particulars: SK-MEL-5, melanoma; 10.0 μM in one dose.
The subject of series [17] is PC-3. The series can be described thus: NCI single-dose GI%, prostate. It counts as cell-based, human. Particulars: PC-3, prostate; 10.0 μM in one dose.
For series [18], the system named is MDA-MB-468. Briefly: NCI single-dose GI%, breast. The format is cell-based, human. Particulars: MDA-MB-468, breast; 10.0 μM in one dose.
The test system of series [19] is K-562. The series can be described thus: NCI single-dose GI%, leukemia. The format is cell-based, human. Particulars: K-562, leukemia; 10.0 μM in one dose.
Series [20] deals with SR. The series can be described thus: NCI single-dose GI%, leukemia. The format is cell-based, human. Particulars: 10.0 μM in one dose.
For series [21], the system named is BT-549. The series can be described thus: NCI single-dose GI%, breast. The format is cell-based, human. Particulars: BT-549, breast; 10.0 μM in one dose.
For series [22], the system named is HCT-116. Briefly: NCI single-dose GI%, colon. The format is cell-based, human. Particulars: HCT-116, colon; 10.0 μM in one dose.
Series [23] deals with MCF7. Briefly: NCI single-dose GI%, breast. Particulars: 10.0 μM in one dose. It counts as cell-based, human.
The test system of series [24] is MDA-MB-231. The series can be described thus: cells. Particulars: Homo sapiens, MDA-MB-231, 48 h, read-out: In vitro cytotoxicity IC50. As for the experimental part:
(§1) The antitumor experiment was conducted on 59 human tumor cell lines derived from nine different human tissues, following the procedure of the Drug Evaluation Branch at the NCI, Bethesda, MD.[33]

The subject of series [25] is leukemia HL-60. Briefly: cells. Particulars: Homo sapiens, HL-60, 48 h, read-out: In vitro cytotoxicity IC50. As for the experimental part:
as §1

Series [26] in a line: in vitro. Particulars: human. As for the experimental part:
(§2) A normal fibroblast-like fetal lung cell line (WI-38) was used to further investigate the therapeutic safety of the newly synthesized hybrids and evaluate their selective cytotoxicity toward normal and tumor cells.[33,77]
as §1

For series [27], the system named is WI-38 normal fibroblast cells. The series can be described thus: in vitro. Particulars: ratio of WI38 IC50 to cancer cell IC50 values. As for the experimental part: as §2, §1
The subject of series [28] is breast adenocarcinoma MCF-7. The series can be described thus: cells. Particulars: Homo sapiens, MCF7, 48 h, read-out: In vitro cytotoxicity IC50, MCF-7; MTT, 48 h drug exposure; mean ± SD of three experiments.

“And” between values parts separate entries of the source, which are not always exact repeats. Equal entries are not always repeated. Bounds are passed on as bounds.

`COc1ccccc1C1CC(c2ccccc2)=NN1C(=O)c1ccc(S(C)(=O)=O)cc1` (stereo not shown) [Compound 18i, (5-(2-Methoxyphenyl)-3-phenyl-4,5-dihydro-1H-pyrazol-1-yl)(4-(methylsulfonyl)phenyl)methanone] came in with a melting point of 236 to 238 °C. Also, in [1], the “PCE (positive cytotoxic effect: ratio of cell lines with growth inhibition >10% to total cell lines)” value is ≤ 12/59 and 12/59; the “MG% (mean growth percent)” value is given as 96.46%. The GI% in series [2] was found to be 46%. Besides, in series [3], the GI% is listed as 28%. This molecule showed a GI% in series [4] of 35%. In [5], this molecule displayed a GI% of 12%. The GI% in series [6] came to 20%. The same molecule had a GI% in series [7] of 13%. Moreover, in series [8], the GI% worked out at 29%. In addition, the GI% in series [9] was determined as 17%. In [10], this molecule yielded a GI% of 36%. The molecule also had a GI% in [11] of 23%. In [12], this molecule displayed a GI% of 28%. Further, the GI% in [13] is 17%.

For `COc1ccc(C2=NN(C(=O)c3ccc(S(C)(=O)=O)cc3)C(c3ccccc3)C2)cc1` (stereo not shown) [Compound 18k, (3-(4-Methoxyphenyl)-5-phenyl-4,5-dihydro-1H-pyrazol-1-yl)(4-(methylsulfonyl)phenyl)methanone], the melting point was 226 to 228 °C. Besides, in series [1], the “PCE (positive cytotoxic effect: ratio of cell lines with growth inhibition >10% to total cell lines)” value is ≤ 12/59 and 12/59; the “MG% (mean growth percent)” value is 97.49%. For the same molecule, the GI% in [2] amounted to 18%. In series [3], this molecule came in with a GI% of 27%. Further, in series [14], the GI% worked out at 11%. This molecule gave a GI% in series [4] of 13%. The same molecule yielded a GI% in series [7] of 14%. This molecule gave a GI% in series [8] of 35%. The molecule also registered a GI% in series [9] of 20%. For the same molecule, the GI% in series [15] worked out at 11%. In series [16], this molecule came in with a GI% of 14%. Moreover, in series [12], the GI% is given as 15%. The GI% in series [17] was 21%. The GI% in series [18] worked out at 16%.

In the case of `COc1ccc(C2CC(c3ccc(OC)cc3OC)=NN2C(=O)c2ccc(S(C)(=O)=O)cc2)cc1` (stereo not shown) [Compound 18o, (3-(2,4-Dimethoxyphenyl)-5-(4-methoxyphenyl)-4,5-dihydro-1H-pyrazol-1-yl)(4-(methylsulfonyl)phenyl)methanone], the melting point was in the range of 268 to 270 °C. Besides, in series [1], the “PCE (positive cytotoxic effect: ratio of cell lines with growth inhibition >10% to total cell lines)” value is listed as 15/59 and the “MG% (mean growth percent)” value was 94.17%. Moreover, in series [2], the GI% came out at 51%. Further, the GI% in series [19] was determined as 32%. Further, in [3], the GI% worked out at 40%. Moreover, the GI% in series [20] was 11%. In addition, the GI% in series [4] is on record as 31%. This molecule displayed a GI% in [6] of 18%. In [8], the GI% is on record as 43%. Besides, the GI% in series [9] is 17%. Also, the GI% in series [15] turned out to be 15%. The GI% in [16] was determined as 12%. The molecule further returned a GI% in series [10] of 38%. This molecule also registered a GI% in [11] of 12%. Also, the GI% in [12] was 19%. Besides, the GI% in [21] was determined as 11%. This molecule also showed a GI% in series [13] of 18%.

As to `CS(=O)(=O)c1ccc(C(=O)N2N=C(c3ccc(F)cc3)CC2c2ccc(F)cc2)cc1` (stereo not shown) [Compound 18e, (3,5-Bis(4-fluorophenyl)-4,5-dihydro-1H-pyrazol-1-yl)(4-(methylsulfonyl)phenyl)methanone], the melting point fell in the range of 330 to 333 °C. In series [1], the “PCE (positive cytotoxic effect: ratio of cell lines with growth inhibition >10% to total cell lines)” value is given as 15/59 and the “MG% (mean growth percent)” value came to 94.18%. In series [2], this molecule showed a GI% of 48%. For the same molecule, the GI% in [19] worked out at 29%. Besides, the GI% in [3] was determined as 35%. In [14], this molecule had a GI% of 12%. Besides, the GI% in series [5] came out at 12%. Besides, the GI% in [6] was 14%. This molecule showed a GI% in series [7] of 12%. For the same molecule, the GI% in series [8] worked out at 15%. In [22], this molecule registered a GI% of 17%. In [15], this molecule returned a GI% of 18%. The GI% in series [11] came out at 17%. The molecule further returned a GI% in series [12] of 22%. This molecule returned a GI% in [17] of 15%. In addition, in series [23], the GI% is listed as 13%. The molecule further returned a GI% in series [13] of 17%.

For `COc1ccc(C2CC(c3ccccc3)=NN2C(=O)c2ccc(S(C)(=O)=O)cc2)cc1` (stereo not shown) [Compound 18j, (5-(4-Methoxyphenyl)-3-phenyl-4,5-dihydro-1H-pyrazol-1-yl)(4-(methylsulfonyl)phenyl)methanone], the melting point is 258 to 260 °C. In [1], the “PCE (positive cytotoxic effect: ratio of cell lines with growth inhibition >10% to total cell lines)” value was 10/59 and the “MG% (mean growth percent)” value was 97.16%. In addition, the GI% in series [2] is 35%. Also, the GI% in series [19] turned out to be 13%. In series [3], this molecule had a GI% of 26%. Also, the GI% in series [4] came out at 24%. Besides, the GI% in series [5] stood at 12%. Moreover, in series [7], the GI% turned out to be 11%. Moreover, the GI% in series [8] amounted to 14%. For the same molecule, in series [15], the GI% is on record as 12%. In addition, the GI% in [10] is 14%. Moreover, the GI% in [13] was 16%.

On to `CN(C)C/C=C/C(=O)Nc1cc2c(Nc3ccc(F)c(Cl)c3)ncnc2cc1O[C@H]1CCOC1` [Afatinib, reference compound], for which the IC50 came to 8.05 ± 0.72 µM in series [24], 6.5 ± 0.77 µM in series [25] and 7.91 ± 0.66 µM in series [28]. Further, in series [26], the midpoint of inhibition, the IC50 at 48 h, lay at 44 ± 1.9 µM. In addition, the “Mean tumor selectivity index (WI38/HL60, MCF7, and MDA-MB-231)” value in series [27] was 5.93.

For `COc1cccc2c1C(=O)c1c(O)c3c(c(O)c1C2=O)C[C@@](O)(C(=O)CO)C[C@@H]3O[C@H]1C[C@H](N)[C@H](O)[C@H](C)O1` [DOX, doxorubicin, reference compound], the IC50 amounted to 5.1 ± 0.31 µM in series [24], 6.01 ± 0.2 µM in series [25] and 4.77 ± 0.4 µM in series [28]. The same molecule yielded an IC50 at 48 h in series [26] of 7.12 ± 0.7 µM. Also, the “Mean tumor selectivity index (WI38/HL60, MCF7, and MDA-MB-231)” value in series [27] is given as 1.36.

The molecule `COc1ccc(C2=NN(C(=O)c3ccc(S(C)(=O)=O)cc3)C(c3ccc(OC)cc3)C2)cc1` (stereo not shown) [Compound 18l, (3,5-Bis(4-methoxyphenyl)-4,5-dihydro-1H-pyrazol-1-yl)(4-(methylsulfonyl)phenyl)methanone] registered a melting point of 198 to 200 °C. For the same molecule, in [1], the “PCE (positive cytotoxic effect: ratio of cell lines with growth inhibition >10% to total cell lines)” value is given as 14/59 and the “MG% (mean growth percent)” value is 95.78%. The same molecule showed a GI% in [2] of 47%. Moreover, the GI% in [19] came to 18%. For the same molecule, in series [3], the GI% was determined as 33%. Also, the GI% in series [4] worked out at 40%. The GI% in series [6] amounted to 11%. Besides, the GI% in [8] amounted to 34%. This molecule gave a GI% in series [9] of 19%. This molecule also returned a GI% in series [15] of 11%. This molecule displayed a GI% in series [10] of 45%. For the same molecule, the GI% in series [11] stood at 14%. The same molecule had a GI% in series [12] of 16%. In series [23], this molecule gave a GI% of 11%. Further, the GI% in series [21] came to 13%. This molecule gave a GI% in series [13] of 11%.

Source of the values: PMC11240878, “Synthesis, enzyme inhibition assay, and molecular modeling study of novel pyrazolines linked to 4-methylsulfonylphenyl scaffold: antitumor activity and cell cycle analysis” (RSC Advances, 2024).
